Laboratory results as given in PMC2694832, “Pharmacokinetics, tissue distribution and mass balance of radiolabeled dihydroartemisinin in male rats” (Malaria Journal, 2009).

Legend:
[1] = Pharmacokinetic study of [^14C] DHA and unchanged DHA, single i.v. dose; assay type: in vivo, rats; settings: for fourth peak concentration of radioactivity: 6 hours; for first peak concentration of radioactivity: at one minute
Method: Traditional PK studies involve intermittent blood sampling and subsequent determination of drug concentrations in whole blood and plasma. The Culex automated blood sampler provides a way for blood withdrawal at preprogrammed intervals, which is more accurate and less labor intensive. Six rats in the PK group were implanted with a jugular vein catheter under an isofluorane anesthaesia. After the surgery, rats were allowed to recover for 96 hours with free access to food and water. The rats were dosed single i.v. at 3 mg/ml/kg with [^14C] DHA (20 μCi/kg), which was prepared as a 25% cremophore/0.9% saline solution, through the tail vein. […] PK evaluation of [^14C] DHA in plasma and whole blood, as well as unchanged DHA in plasma was conducted in individual rats.
Total radioactivity in the collected tissue samples were quantified in duplicate. Weighed tissue aliquots (~0.2 g) were digested overnight in 2 ml of Solvable® tissue solubilizer (Perkin-Elmer Life and Analytical Sciences, Boston, MA) at 50°C. Coloured samples were decolourized by adding a maximum of 0.2 ml of 30% H2O2 for 30–60 minutes. Scintillation cocktail (Hyonic Fluor; Perkin-Elmer Boston. Massachusetts, USA) was then added and radioactivity determined in a Perkin-Elmer Tri-Carb 3100 TR scintillation spectrophotometer (Packard Instrument Co., Downers Grove, Illinois, USA). Faeces and intestinal contents were thoroughly homogenized before taking aliquots. Plasma was also analysed using the HPLC-ECD system to measure the concentration of unchanged DHA, as described by Li et al.
The analysis of cold DHA in plasma was performed according to a previously described HPLC method with the following modifications: for simultaneous determination of artemisinin and DHA (artemisinin as an internal standard), the Agilent Eclipse XDB-C18 column 5 μm (4.6 × 150 mm) was used with an isocratic mobile phase consisting of 40% acetonitrile: 60% ESA Acid Metabolite A (70–4835) in the reductive mode (-400 mV) for the quantification of DHA. Validation and reproducibility were evaluated and a lower limit of quantitation (LLQ) of 2.31 ng/ml for DHA was determined. The inter- and intra-day coefficient of variation for accuracy and precision were all within ± 10%.
For pharmacokinetics, the concentration-time data of [^14C] DHA in plasma and whole blood collected during the 192 hour treatment period was fitted to a three-compartment open model using a nonlinear, extended least-square fitting procedure (WinNonlin 5.2, Pharsight Corporation, Cary, NC) using weighted (1/concentration) nonlinear regression. The area under the curve (AUC) was determined by the linear trapezoidal rule with extrapolation to infinity based on the concentration of the last time point divided by the terminal rate constant. Extrapolations to time zero were done using zero concentration for intravenous dosing and using C0 values determined from the three-compartment model equation at time zero by i.v. route. Mean clearance rate (CL) was determined by dividing the dose by the AUCinf for i.v. injection. Mean residence time (MRT) was determined by dividing the area under the first moment curve (AUMC) by the AUC. The volume of distribution at steady state (Vss) was calculated as the product of CL and MRT. The concentration-time data of unchanged DHA was fitted to a two-compartment open model. Statistical analysis was conducted with Microsoft Excel using a Student's t-test for dependent samples to compare means of paired and unpaired samples between two groups.

[2] = Metabolic profile of [^14C] DHA (free, glucuronide and other conjugation fractions); assay type: in vivo, rats; settings: for drug conjugation of the dose: rats i.v. 3 mg/20 μCi/kg
Method: About 2 ml of plasma and urine, and 1 – 2 g of faeces were used. Conjugates were hydrolyzed by glucuronidase (1000 FU/ml, Sigma-Aldrich, St. Louis, MO) at pH 4.6, 38°C for 24 hours. Active enzyme was checked by phenophthaleinglucuronide at the end of incubation. Urine and faecal samples were incubated for 48 hours and fresh enzyme was added after 24 hours. Total radioactivity in free, conjugated, and the remaining aqueous fractions were measured with liquid scintillation counters. Protein precipitates were dissolved in Solvable^R (200 mg in 1 ml) and counted for radioactivity after addition of scintillation cocktail.

[3] = blood radioactivity, three-compartment, rats single i.v. 3 mg/20 μCi/kg
[4] = blood radioactivity, rats single i.v. 3 mg/20 μCi/kg
[5] = plasma radioactivity, three-compartment, rats single i.v. 3 mg/20 μCi/kg
[6] = plasma radioactivity, rats single i.v. 3 mg/20 μCi/kg
[7] = plasma radioactivity, rats single i.v. 3 mg/20 μCi/kg, listed as 14C-Dihydroartemisinin
[8] = plasma, rats i.v. 3 mg/20 μCi/kg

AUCinf. [1, 3]: 52690 ± 4971 ng·h/mL
CL [1, 3]: 0.7263 ± 0.5117 mL/min/kg
Cmax [1, 3]: 3105 ± 430 ng/mL
MRT [1, 3]: 148.57 ± 90.24 h
Vss [1, 3]: 10.792 ± 3.771 L/kg
t1/2 – alpha [1, 3]: 0.18 ± 0.02 h
t1/2 – beta [1, 3]: 19.68 ± 3.88 h
t1/2 – gamma (terminal) [1, 3]: 122.13 ± 8.73 h
Cmax at first peak [1, 4]: 3105 ± 430 ng/mL
Cmax at fourth peak [1, 4]: 833 ± 99 ng/mL
Cmax at second peak [1, 4]: 1557 ± 955 ng/mL
Cmax at third peak [1, 4]: 978 ± 164 ng/mL
Tmax [1, 4]: 1.2 min
time of first peak [1, 4]: 0.02 h
time of fourth peak [1, 4]: 6 h
time of second peak [1, 4]: 0.94 h
time of third peak [1, 4]: 2.00 h
time of fourth peak ([1]; blood radioactivity, rats single i.v. 3 mg/20 μCi/kg, listed as 14C-Dihydroartemisinin): 6.00 h
fourth peak concentration of radioactivity ([1]; blood, rats i.v. 3 mg/20 μCi/kg): 833 ng equivalents/ml
third peak concentration of radioactivity ([1]; blood, at two hours, rats i.v. 3 mg/20 μCi/kg): 978 ng equivalents/ml
AUCinf. [1, 5]: 21014 ± 2718 ng·h/mL
CL [1, 5]: 2.4105 ± 0.3028 mL/min/kg
MRT [1, 5]: 57.00 ± 2.84 h
Vss [1, 5]: 8.216 ± 0.828 L/kg
t1/2 – alpha [1, 5]: 0.21 ± 0.05 h
t1/2 – gamma (terminal) [1, 5]: 75.57 ± 7.34 h
time of second peak ([1]; plasma radioactivity, rats i.v. 3 mg/20 μCi/kg): 0.183 h
Cmax at fourth peak [1, 6]: 584 ± 65.5 ng/mL
Cmax at second peak [1, 6]: 2373 ± 195 ng/mL
Cmax at third peak [1, 6]: 863 ± 537 ng/mL
Tmax [1, 6]: 1.2 min
time of first peak [1, 6]: 0.02 h
time of fourth peak [1, 6]: 6 h
time of second peak [1, 6]: 0.19 h
time of third peak [1, 6]: 1.7 h
time of fourth peak [1, 7]: 6.00 h
time of third peak [1, 7]: 1.70 h
fourth peak concentration of radioactivity [1, 8]: 584 ng equivalents/ml
first peak concentration of radioactivity [1, 8]: 3,446 ng equivalents/g
second peak concentration of radioactivity [1, 8]: 2,373 ng equivalents/ml
third peak concentration of radioactivity [1, 8]: 863 ng equivalents/ml
total radioactivity in the plasma fraction relative to blood total ([1]; rats i.v.): less than 25%
duration of total radioactivity (long-lasting metabolites) ([1]; rats, plasma, urine and faeces, single i.v. 3 mg/20 μCi/kg): > 192 h
time of second peak ([1]; whole blood radioactivity, rats i.v. 3 mg/20 μCi/kg): 0.933 h
first peak concentration of radioactivity ([1]; whole blood, rats i.v. 3 mg/20 μCi/kg): 3,105 ng equivalents/g
ratio of conjugation to free ([2]; plasma, 10 minutes): 1.86
ratio of conjugation to free ([2]; plasma, 1 hour after dosing): 4.48
ratio of conjugation to free ([2]; plasma, 192 hours): 15.1
ratio of conjugation to free ([2]; plasma, within five minutes after dosing): 1.07
drug conjugation of the dose ([2]; plasma): up to 89%
drug conjugation of the dose ([2]; urine): ≤ 95%
Compound: C[C@@H]1CC[C@H]2[C@@H]([14CH3])C(O)O[C@@H]3O[C@@]4(C)CC[C@@H]1[C@]32OO4 (stereo partly drawn) [[^14C] DHA, [16-^14C] DHA]
